# In PMC11198769, “Enhancement of transcription efficiency by TAR-Tat system increases the functional expression of human olfactory receptors” (PLOS ONE, 2024):
# Assays:
# Assay in all cases: Comprehensive analysis (screening) of hORs against n-hexanal
# Type in all cases: cell-based
# OR10C1 = target: T1, OR10C1 (Homo sapiens, UniProt Q96KK4); conditions: OR10C1, 500 μM n-hexanal, with the TAR-Tat system (hOR/pHEK), n = 1
# T1 construct: Lucy tag (N); expressed in transfected cells; host or cells: Flp-In T-REx-293 cells stably expressing RTP1S, Gαolf and Ric8-b
# T1 sequence (Q96KK4 1-312): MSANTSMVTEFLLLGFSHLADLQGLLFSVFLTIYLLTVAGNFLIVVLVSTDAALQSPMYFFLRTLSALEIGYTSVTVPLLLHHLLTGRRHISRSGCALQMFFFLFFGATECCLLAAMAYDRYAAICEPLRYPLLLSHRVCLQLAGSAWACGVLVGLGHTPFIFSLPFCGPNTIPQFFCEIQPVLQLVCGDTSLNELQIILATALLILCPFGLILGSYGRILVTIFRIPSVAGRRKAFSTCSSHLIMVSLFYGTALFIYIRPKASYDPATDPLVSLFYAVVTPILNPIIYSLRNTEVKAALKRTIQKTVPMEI
# Description: (§1) Transfection was performed as described in the “hOR assay,” but 12.5 ng of 379 hOR plasmids (hOR/pBApo and hOR/pHEK) was transfected with the 12.5 ng pGlosensor^TM-22F cAMP biosensor plasmid (Promega) in 384 plates per well. After loading the GloSensor cAMP substrate and preincubation, the assay buffer was added (30 μL/well). After 10 min of equilibration, luminescence was measured (L0). Then, 50 mM n-hexanal, which was diluted with 10% DMSO/assay buffer, was added (4.7 μL/well). After 9 min, luminescence was measured (L9min). All the L9min values were subtracted by the L0 value (ΔL).
# OR1A1 = target: T2, OR1A1 (Homo sapiens, UniProt Q9P1Q5); conditions: OR1A1, 500 μM n-hexanal, n = 1
# T2 construct: Lucy tag (N); FLAG (N); Rho tag (N); expressed in transfected cells; host or cells: Flp-In T-REx-293 cells stably expressing RTP1S, Gαolf and Ric8-b
# T2 sequence (Q9P1Q5 1-309): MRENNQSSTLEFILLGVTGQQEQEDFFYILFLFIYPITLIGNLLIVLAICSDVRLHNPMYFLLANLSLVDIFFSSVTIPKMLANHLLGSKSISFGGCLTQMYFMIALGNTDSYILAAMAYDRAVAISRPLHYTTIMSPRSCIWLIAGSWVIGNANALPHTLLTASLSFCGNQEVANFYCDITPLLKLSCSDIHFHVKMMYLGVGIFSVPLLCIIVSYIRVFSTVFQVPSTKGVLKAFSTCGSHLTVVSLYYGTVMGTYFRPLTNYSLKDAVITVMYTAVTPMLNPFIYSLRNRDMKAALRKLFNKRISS
# Description: as §1
# OR2J3 = target: T3, OR2J3 (Homo sapiens, UniProt O76001); conditions: OR2J3, 500 μM n-hexanal, n = 1
# T3 construct: Lucy tag (N); FLAG (N); Rho tag (N); expressed in transfected cells; host or cells: Flp-In T-REx-293 cells stably expressing RTP1S, Gαolf and Ric8-b
# T3 sequence (O76001 1-311): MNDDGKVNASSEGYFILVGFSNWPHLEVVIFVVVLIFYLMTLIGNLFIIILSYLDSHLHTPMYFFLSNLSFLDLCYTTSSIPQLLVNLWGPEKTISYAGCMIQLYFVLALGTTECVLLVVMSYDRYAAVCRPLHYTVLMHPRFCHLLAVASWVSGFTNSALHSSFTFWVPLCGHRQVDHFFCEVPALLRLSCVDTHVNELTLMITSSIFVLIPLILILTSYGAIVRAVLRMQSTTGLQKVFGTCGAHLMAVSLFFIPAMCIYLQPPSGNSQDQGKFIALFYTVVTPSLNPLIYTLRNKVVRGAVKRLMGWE
# Description: as §1
# OR5K1 = target: T4, OR5K1 (Homo sapiens, UniProt Q8NHB7); conditions: OR5K1, 500 μM n-hexanal, with the TAR-Tat system (hOR/pHEK), n = 1
# T4 construct: Lucy tag (N); FLAG (N); Rho tag (N); expressed in transfected cells; host or cells: Flp-In T-REx-293 cells stably expressing RTP1S, Gαolf and Ric8-b
# T4 sequence (Q8NHB7 1-308): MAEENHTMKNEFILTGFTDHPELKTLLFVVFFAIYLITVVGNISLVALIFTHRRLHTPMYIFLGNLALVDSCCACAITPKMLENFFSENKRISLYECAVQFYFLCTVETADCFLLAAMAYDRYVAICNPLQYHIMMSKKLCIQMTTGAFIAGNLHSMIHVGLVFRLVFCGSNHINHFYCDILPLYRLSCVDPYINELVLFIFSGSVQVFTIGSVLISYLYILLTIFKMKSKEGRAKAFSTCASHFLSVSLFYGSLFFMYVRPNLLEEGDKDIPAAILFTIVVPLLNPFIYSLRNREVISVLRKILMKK
# Description: as §1
# OR5M3 = target: T5, OR5M3 (Homo sapiens, UniProt Q8NGP4); conditions: OR5M3, 500 μM n-hexanal, with the TAR-Tat system (hOR/pHEK), n = 1
# T5 construct: Lucy tag (N); FLAG (N); Rho tag (N); expressed in transfected cells; host or cells: Flp-In T-REx-293 cells stably expressing RTP1S, Gαolf and Ric8-b
# T5 sequence (Q8NGP4 1-307): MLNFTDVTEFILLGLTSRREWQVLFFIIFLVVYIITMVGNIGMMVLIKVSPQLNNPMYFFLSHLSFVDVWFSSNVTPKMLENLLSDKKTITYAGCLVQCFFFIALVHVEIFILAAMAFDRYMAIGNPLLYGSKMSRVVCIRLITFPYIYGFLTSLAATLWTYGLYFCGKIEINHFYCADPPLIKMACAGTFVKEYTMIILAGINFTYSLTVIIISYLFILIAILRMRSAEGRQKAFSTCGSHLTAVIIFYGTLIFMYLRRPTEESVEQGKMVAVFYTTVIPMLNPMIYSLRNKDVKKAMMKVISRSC
# Description: as §1
# OR5P3 = target: T6, OR5P3 (Homo sapiens, UniProt Q8WZ94); conditions: OR5P3, 500 μM n-hexanal, n = 1
# T6 construct: Lucy tag (N); FLAG (N); Rho tag (N); expressed in transfected cells; host or cells: Flp-In T-REx-293 cells stably expressing RTP1S, Gαolf and Ric8-b
# T6 sequence (Q8WZ94 1-311): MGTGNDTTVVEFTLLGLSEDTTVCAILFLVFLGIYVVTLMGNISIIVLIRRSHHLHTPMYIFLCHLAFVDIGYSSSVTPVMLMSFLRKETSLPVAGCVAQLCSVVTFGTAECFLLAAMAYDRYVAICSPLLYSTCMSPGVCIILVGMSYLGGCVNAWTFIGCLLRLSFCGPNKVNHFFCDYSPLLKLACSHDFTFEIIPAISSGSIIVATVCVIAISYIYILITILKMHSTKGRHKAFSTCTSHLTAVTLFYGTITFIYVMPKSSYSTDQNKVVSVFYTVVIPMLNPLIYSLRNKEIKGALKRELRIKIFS
# Description: as §1
# [1] = with the TAR-Tat system (hOR/pHEK)
# [2] = without the TAR-Tat system (control plasmid)
structure (smiles),measurement,setting,value
CCCCCC=O [n-hexanal],response value (ΔL),OR10C1,> 500
same,response value (ΔL),OR1A1; [1],6675
same,response value (ΔL),OR1A1; [2],974
same,response value (ΔL),OR2J3; [1],1580
same,response value (ΔL),OR2J3; [2],549
same,response value (ΔL),OR5K1,> 500
same,response value (ΔL),OR5M3,> 500
same,response value (ΔL),OR5P3; [1],2931
same,response value (ΔL),OR5P3; [2],740
